Results: PubChem BioAssay (NCI)
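The compound was tested at five concentrations on cells cultured in 96-well plates, with a 48-hour exposure period. The concentration for full growth arrest is given as TGI.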

Key:
Assay in all cases: NCI tumour cell line growth inhibition, 48 h
[1] = test system: HL-60(TB) leukemia
[2] = test system: HOP-62 NSCLC
[3] = test system: IGROV1 ovarian
[4] = test system: MDA-N
[5] = test system: OVCAR-5 ovarian
[6] = test system: PC-3 prostate
[7] = test system: SK-MEL-5 melanoma
[8] = test system: SN12C renal
[9] = test system: SNB-19 CNS
[10] = test system: U251 CNS

| SMILES | TGI [1] | TGI [2] | TGI [3] | TGI [4] | TGI [5] | TGI [6] | TGI [7] | TGI [8] | TGI [9] | TGI [10] |
| --- | --- | --- | --- | --- | --- | --- | --- | --- | --- | --- |
| Cc1ccc(S(=O)(=O)N(CC(O)c2ccccc2)c2ccccc2F)cc1 (stereo not given) | 9.13 µM | 33.8 µM | 41.2 µM | 33.8 µM | 41 µM | 32.2 µM | 29.6 µM | 34.3 µM | 37.5 µM | 36.7 µM |
| OC12C3C4CC5C(C4[C@@H]1Br)C2[C@@](O)(c1c(F)c(F)c(F)c(F)c1F)C53 (stereo not given in full) | > 100 µM | > 100 µM | > 100 µM | > 100 µM | > 100 µM | 94.4 µM | 59.3 µM | > 100 µM | > 100 µM | > 100 µM |
| N#CN=C1c2ccccc2C(=NC#N)c2cc(CO)ccc21 | 60.7 µM | > 100 µM | 90.7 µM | > 100 µM | > 100 µM | > 100 µM | > 100 µM | > 100 µM | > 100 µM | > 100 µM |
| CCN(CC)c1ccc2c(c1)Oc1ccc(N(C(C)=O)c3ccccc3)cc1C21OC(=O)c2ccccc21 (stereo not given) | 97.6 µM | > 100 µM | > 100 µM | > 100 µM | > 100 µM | > 100 µM | > 100 µM | > 100 µM | > 100 µM | > 100 µM |
| O=C1C=C(N2CCCC2)C(=O)c2c(O)ccc(O)c21 | > 10 µM | > 10 µM | > 10 µM | > 10 µM | > 10 µM | > 10 µM | > 10 µM | > 10 µM | > 10 µM | > 1 µM |
| NC(Cc1ccccc1)=NCC(=O)O | > 100 µM | > 100 µM | > 100 µM | > 100 µM | > 100 µM | > 100 µM | > 100 µM | > 100 µM | > 100 µM | > 100 µM |
| COc1ccc(/C=C2\Sc3nnc(C)n3N=C2c2cc(F)c(Cl)cc2Cl)cc1OC | 96.4 µM | 33.3 µM | 31 µM | 17.6 µM | 31.2 µM | 37.7 µM | 36.2 µM | 34.5 µM | 11.8 µM | 30.2 µM |
| Cc1ccc(C2(N3CCCC3)OC(C)(C)c3cccc4cccc2c34)cc1 (stereo not given) | > 100 µM | 32.3 µM | 29.8 µM | 29.9 µM | 31.4 µM | 36.2 µM | 28.2 µM | 32.6 µM | 29.8 µM | 29.4 µM |
| O=S(=O)(O)c1ccc2c(N=Nc3ccccc3)c(O)c(S(=O)(=O)O)cc2c1 | > 100 µM | > 100 µM | > 100 µM | > 100 µM | > 100 µM | > 100 µM | > 100 µM | > 100 µM | > 100 µM | > 100 µM |
| NNC(=O)Cc1cccnc1 | > 100 µM | > 100 µM | > 100 µM | > 100 µM | > 100 µM | > 100 µM | > 100 µM | > 100 µM | > 100 µM | > 100 µM |
| CC(C)=CCC/C(=C\CC/C(=C\CCc1ccoc1)C(=O)O)C(=O)O | > 100 µM | > 100 µM | > 100 µM | > 100 µM | > 100 µM | > 100 µM | > 100 µM | > 100 µM | > 100 µM | > 100 µM |
| Cc1ccc(C(=O)Cc2nc3ncccc3[nH]c2=O)cc1 | > 100 µM | 48.4 µM | > 100 µM | > 100 µM | > 100 µM | > 100 µM | > 100 µM | > 100 µM | > 100 µM | 52.7 µM |
| O=C(O)CS(=O)c1ccc2c3c(cccc13)C(=O)c1ccccc1-2 (stereo not given) | > 100 µM | > 100 µM | > 100 µM | > 100 µM | > 100 µM | > 100 µM | > 100 µM | > 100 µM | > 100 µM | > 100 µM |
| CC(=O)N1CC(C)(C)c2c1cc(C)c(O)c2C | > 100 µM | > 100 µM | > 100 µM | > 100 µM | > 100 µM | > 100 µM | > 100 µM | > 100 µM | > 100 µM | > 100 µM |
| COc1cc(CCNC2=CC(=O)c3cccnc3C2=O)ccc1O | 9.43 µM | 2.86 µM | 4.3 µM | 0.308 µM | 2.99 µM | 18.7 µM | 1.08 µM | 2.43 µM | 4.04 µM | 7.05 µM |
| CC(=O)OC(CC(C)C)P1(=O)N(CC(C)(C)C)[C@@H]2CCCC[C@H]2N1CC(C)(C)C (stereo not given in full) | 23.1 µM | 29.9 µM | 24.2 µM | 21.3 µM | 22.9 µM | 13.6 µM | 21.9 µM | 24.4 µM | 21.9 µM | 20.1 µM |
| O=C(O)CCC(C(=O)O)N1C(=O)c2ccccc2C1=O (stereo not given) | > 100 µM | > 100 µM | > 100 µM | > 100 µM | > 100 µM | > 100 µM | > 100 µM | > 100 µM | > 100 µM | > 100 µM |
| O=C1c2cc([N+](=O)[O-])cnc2S(=O)(=O)N1c1ccc(Br)cc1 | > 100 µM | > 100 µM | > 100 µM | > 100 µM | > 100 µM | > 100 µM | > 100 µM | > 100 µM | > 100 µM | > 100 µM |
